Results as given in patent publication US20250073358A1, “AROMATIC VINYL COMPOUND, METAL COMPLEX THEREOF, AND PREPARATION METHOD THEREFOR AND USE THEREOF” (SHANGHAI MAXINOVEL PHARMACEUTICALS CO., LTD., priority 2021, published 2025).

Key:
PD-1/PD-L1 = PD-1/PD-L1 (Homo sapiens (Human), UniProt Q9NZQ7); assay: Homogenouse Time-Resolved Fluorescence (HTRF) binding assay, PD-1/PD-L1
Experimental: Homogenouse Time-Resolved Fluorescence (HTRF) binding assay was used to detect the binding ability of the compound of the present disclosure to PD-1/PD-L1.
The purchased kit (CisBio, #64CUS000C-1) contains reagents required for experiments such as PD-1, PD-L1, anti-tag1-Eu, Anti-tag2-XL665, Dilute Buffer, and Detection Buffer.
• 1. The compound was configured with 100% DMSO into 10 concentrations with a concentration gradient of 3 times. • 2. The DMSO solution of the compound was added to Dilute Buffer solution, and the mixture was mixed well and transferred to a 96-well plate. • 3. PD-L1 was diluted with Dilute Buffer solution and then added to the above 96-well plate. • 4. PD-1 was diluted with Dilute Buffer solution and then added to the above 96-well plate, and incubated at room temperature for 30 minutes. • 5. One part of anti-tag1-Eu and one part of Anti-tag2-XL665 were added to Detection Buffer solution, and the mixture was mixed well and transferred to the above 96-well plate. • 6. The mixture in the 96-well plate was incubated at room temperature for 1 to 24 hours. • 7. The HTRF values were read with Envision.

tumor = assay: Inhibitory effect on tumor in tumor-bearing mice; type: in vivo, C57/BL6 mice; conditions: tail vein injection, 45 MBq per mouse, compared with the control group (PBS)
Description: • 1. Inhibitory effect of compound 78 on tumor • 1.1 Experimental animal information: tumor-bearing C57/BL6 mice; SPF grade; weight range: 17-20 g; Shanghai Qi'up Biomedical Technology Co., Ltd. • 1.2 Experimental process
Ten tumor-bearing mice with tumor volumes of 10-100 mm^3 were systematically and randomly divided into 2 groups according to tumor size, with 5 mice in each group, corresponding to PBS and compound 78 respectively. After anesthesia with isoflurane, tumor-bearing mice were injected into the tail vein with compound 78 with 45 MBq (approximately 1.2 mCi) per mouse and a volume of 0.2 mL. After administration, the tumor size and weight of the animals were measured periodically, and the tumor growth curve was drawn to understand the inhibitory effect of the drug on tumor.

Sequence of PD-1/PD-L1 (Q9NZQ7 19-238): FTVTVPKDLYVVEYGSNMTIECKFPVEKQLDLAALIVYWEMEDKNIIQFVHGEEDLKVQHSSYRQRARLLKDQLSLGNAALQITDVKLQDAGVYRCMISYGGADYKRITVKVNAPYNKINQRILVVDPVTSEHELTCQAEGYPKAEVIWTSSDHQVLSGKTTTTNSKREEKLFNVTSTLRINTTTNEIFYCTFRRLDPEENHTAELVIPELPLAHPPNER

| SMILES | IC50 (PD-1/PD-L1) [nM] | inhibition of tumor growth (tumor) |
| --- | --- | --- |
| Cc1c(/C=C/c2cc(OCCOCCN3CCN(CC(=O)O)CCN(CC(=O)O)CCN(CC(=O)O)CC3)c(CN3CCCC[C@H]3C(=O)O)cc2C(F)(F)F)cccc1-c1ccccc1 [Compound 2] | 1.29 |  |
| Cc1c(/C=C/c2cc(OCCNC(=O)CN3CCN(CC(=O)O)CCN(CC(=O)O)CCN(CC(=O)O)CC3)c(CN3CCCC[C@H]3C(=O)O)cc2C(F)(F)F)cccc1-c1ccccc1 [Compound 3, (2S)-1-({4-[(1E)-2-(2-Methyl-3-phenylphenyl)vinyl]-5-(trifluoromethyl)-2-{[2-({2-[4,7,10-tris(carboxymethyl)-1,4,7,10-tetraazacyclododecan-1-yl]acetyl}amino)ethyl]oxy}phenyl}methyl)hexahydropyridine-2-carboxylic acid] | 3.16 |  |
| Cc1c(/C=C/c2cc(OCCCCNC(=O)CN3CCN(CC(=O)O)CCN(CC(=O)O)CCN(CC(=O)O)CC3)c(CN3CCCC[C@H]3C(=O)O)cc2C(F)(F)F)cccc1-c1ccccc1 [Compound 4, (2S)-1-({4-[(1E)-2-(2-Methyl-3-phenylphenyl)vinyl]-5-(trifluoromethyl)-2-{[4-({2-[4,7,10-tris(carboxymethyl)-1,4,7,10-tetraazacyclododecan-1-yl]acetyl}amino)butyl]oxy}phenyl}methyl)hexahydropyridine-2-carboxylic acid] | 0.888 |  |
| Cc1c(/C=C/c2cc(OCCOCCN3CCN(CC(=O)O)CCN(CC(=O)O)CCN(CC(=O)O)CC3)c(CN3CCCC[C@H]3C(=O)O)cc2C(F)(F)F)cccc1-c1ccccc1 [Compound 6] | 2.66 | very good therapeutic effects on inhibiting tumor growth |
| Cc1c(/C=C/c2cc(OCCNC(=O)C3CCC(CNC(=O)CN4CCN(CC(=O)O)CCN(CC(=O)O)CCN(CC(=O)O)CC4)CC3)c(CN3CCCC[C@H]3C(=O)O)cc2C(F)(F)F)cccc1-c1ccccc1 (stereo partly shown) [Compound 9] | 1.07 |  |
| Cc1ccc(CCCC(=O)NCCCC[C@H](NC(=O)CN2CCN(CC(=O)O)CCN(CC(=O)O)CCN(CC(=O)O)CC2)C(=O)NCCOc2cc(/C=C/c3cccc(-c4ccccc4)c3C)c(C(F)(F)F)cc2CN2CCCC[C@H]2C(=O)O)cc1 [Compound 10] | 169 |  |
| Cc1ccc(CCCC(=O)NCCCC[C@H](NC(=O)CN2CCN(CC(=O)O)CCN(CC(=O)O)CCN(CC(=O)O)CC2)C(=O)NCCCCOc2cc(/C=C/c3cccc(-c4ccccc4)c3C)c(C(F)(F)F)cc2CN2CCCC[C@H]2C(=O)O)cc1 [Compound 12] | 32.5 | very good therapeutic effects on inhibiting tumor growth |
| Cc1ccc(CCCC(=O)NCCCC[C@H](NC(=O)CN2CCN(CC(=O)O)CCN(CC(=O)O)CCN(CC(=O)O)CC2)C(=O)NCCOc2cc(/C=C/c3cccc(-c4ccccc4)c3C)c(C(F)(F)F)cc2CN2CCCC[C@H]2C(=O)O)cc1 [Compound 13] | 300 | very good therapeutic effects on inhibiting tumor growth |
| Cc1c(/C=C/c2cc(OCCNC(=O)C3CCC(CNC(=O)CN4CCN(CC(=O)O)CCN(CC(=O)O)CCN(CC(=O)O)CC4)CC3)c(CN3CCCC[C@H]3C(=O)O)cc2C(F)(F)F)cccc1-c1ccccc1 (stereo partly shown) [Compound 14] | 0.95 | very good therapeutic effects on inhibiting tumor growth |
| Cc1cc(CN2CCCC[C@H]2C(=O)O)c(OCCOC(=O)CN2CCN(CC(=O)[O-])CCN(CC(=O)[O-])CCN(CC(=O)[O-])CC2)cc1/C=C/c1cccc(-c2ccccc2)c1C#N.[Lu+3] [Compound 15] | 5.33 | very good therapeutic effects on inhibiting tumor growth |
| Cc1c(/C=C/c2cc(OCCCCCNC(=O)CN3CCN(CC(=O)O)CCN(CC(=O)O)CCN(CC(=O)O)CC3)c(CN3CCCC[C@H]3C(=O)O)cc2C(F)(F)F)cccc1-c1ccccc1 [Compound 16] | 1.42 |  |
| Cc1c(/C=C/c2cc(OCCNC(=O)C3CCN(C(=O)CN4CCN(CC(=O)O)CCN(CC(=O)O)CCN(CC(=O)O)CC4)CC3)c(CN3CCCC[C@H]3C(=O)O)cc2C(F)(F)F)cccc1-c1ccccc1 [Compound 18] | 0.901 |  |
| Cc1c(/C=C/c2cc(OCC3CCN(C(=O)CN4CCN(CC(=O)O)CCN(CC(=O)O)CCN(CC(=O)O)CC4)CC3)c(CN3CCCC[C@H]3C(=O)O)cc2C(F)(F)F)cccc1-c1ccccc1 [Compound 19] | 0.869 |  |
| Cc1c(/C=C/c2cc(OCC3CCN(C(=O)CN4CCN(CC(=O)O)CCN(CC(=O)O)CCN(CC(=O)O)CC4)CC3)c(CN3CCCC[C@H]3C(=O)O)cc2C(F)(F)F)cccc1-c1ccccc1 [Compound 20] | 1.01 | very good therapeutic effects on inhibiting tumor growth |
| Cc1ccc(CCCC(=O)NCCCC[C@H](NC(=O)CN2CCN(CC(=O)O)CCN(CC(=O)O)CCN(CC(=O)O)CC2)C(=O)NCC2CCC(C(=O)NCCOc3cc(/C=C/c4cccc(-c5ccccc5)c4C)c(C(F)(F)F)cc3CN3CCCC[C@H]3C(=O)O)CC2)cc1 (stereo partly shown) [Compound 21] | 3.74 |  |
| Cc1ccc(CCCC(=O)NCCCC[C@H](NC(=O)CN2CCN(CC(=O)O)CCN(CC(=O)O)CCN(CC(=O)O)CC2)C(=O)NCC2CCC(C(=O)NCCOc3cc(/C=C/c4cccc(-c5ccccc5)c4C)c(C(F)(F)F)cc3CN3CCCC[C@H]3C(=O)O)CC2)cc1 (stereo partly shown) [Compound 22] | 5.03 | very good therapeutic effects on inhibiting tumor growth |
| Cc1c(/C=C/c2cc(OCCCCCCNC(=O)CN3CCN(CC(=O)O)CCN(CC(=O)O)CCN(CC(=O)O)CC3)c(CN3CCCC[C@H]3C(=O)O)cc2C(F)(F)F)cccc1-c1ccccc1 [Compound 23] | 0.833 |  |
| Cc1c(/C=C/c2cc(OCCCCCCNC(=O)CN3CCN(CC(=O)[O-])CCN(CC(=O)[O-])CCN(CC(=O)[O-])CC3)c(CN3CCCC[C@H]3C(=O)O)cc2C(F)(F)F)cccc1-c1ccccc1.[Lu+3] [Compound 24] | 0.785 | very good therapeutic effects on inhibiting tumor growth |
| Cc1ccc(CCCC(=O)NCCCC[C@H](NC(=O)CN2CCN(CC(=O)O)CCN(CC(=O)O)CCN(CC(=O)O)CC2)C(=O)NCCCCCCOc2cc(/C=C/c3cccc(-c4ccccc4)c3C)c(C(F)(F)F)cc2CN2CCCC[C@H]2C(=O)O)cc1 [Compound 25] | 16.2 |  |
| Cc1ccc(CCCC(=O)NCCCC[C@H](NC(=O)CN2CCN(CC(=O)O)CCN(CC(=O)O)CCN(CC(=O)O)CC2)C(=O)NCCCCCCOc2cc(/C=C/c3cccc(-c4ccccc4)c3C)c(C(F)(F)F)cc2CN2CCCC[C@H]2C(=O)O)cc1 [Compound 26] | 33.2 | very good therapeutic effects on inhibiting tumor growth |
| Cc1ccc(CCCC(=O)NCCCC[C@H](NC(=O)CN2CCN(CC(=O)O)CCN(CC(=O)O)CCN(CC(=O)O)CC2)C(=O)NCCOCCOc2cc(/C=C/c3cccc(-c4ccccc4)c3C)c(C(F)(F)F)cc2CN2CCCC[C@H]2C(=O)O)cc1 [Compound 30] | 9.22 |  |
| Cc1c(/C=C/c2cc(OCCOCCNC(=O)CN3CCN(CC(=O)O)CCN(CC(=O)O)CCN(CC(=O)O)CC3)c(CN3CCCC[C@H]3C(=O)O)cc2C(F)(F)F)cccc1-c1ccccc1 [Compound 31] | 0.603 |  |
| Cc1ccc(CCCC(=O)NCCCC[C@H](NC(=O)CN2CCN(CC(=O)O)CCN(CC(=O)O)CCN(CC(=O)O)CC2)C(=O)NCCOCCOc2cc(/C=C/c3cccc(-c4ccccc4)c3C)c(C(F)(F)F)cc2CN2CCCC[C@H]2C(=O)O)cc1 [Compound 32] | 12.4 | very good therapeutic effects on inhibiting tumor growth |
| N#Cc1c(-c2ccccc2)ccnc1/C=C/c1cc(OCC2CCN(C(=O)CN3CCN(CC(=O)[O-])CCN(CC(=O)[O-])CCN(CC(=O)[O-])CC3)CC2)c(CN2CCCC[C@H]2C(=O)O)cc1C(F)(F)F.[Lu+3] [Compound 44] |  | very good therapeutic effects on inhibiting tumor growth |
| N#Cc1c(-c2ccccc2)ccnc1/C=C/c1cc(OCCCCCN2CCN(CC(=O)O)CCN(CC(=O)O)CC2)c(CN2CCCC[C@H]2C(=O)O)cc1C(F)(F)F [Compound 57] | 4.83 |  |
| N#Cc1c(-c2ccccc2)ccnc1/C=C/c1cc(OCC2CCN(C(=O)CN3CCN(CC(=O)O)CCN(CC(=O)O)CC3)CC2)c(CN2CCCC[C@H]2C(=O)O)cc1C(F)(F)F [Compound 59] | 5.47 |  |
| Cc1c(/C=C/c2cc(OCCOCCN3CCN(CC(=O)O)CCN(CC(=O)O)CCN(CC(=O)O)CC3)c(CN3CCCC[C@@H]3C(=O)O)cc2C(F)(F)F)cccc1-c1ccccc1 [Compound 69] | 24.8 |  |
| Cc1cc(CN2CCCC[C@H]2C(=O)O)c(OCCCCCN2CCN(CC(=O)O)CCN(CC(=O)O)CCN(CC(=O)O)CC2)cc1/C=C/c1cccc(-c2ccccc2)c1C [Compound 71] | 13.2 |  |
| Cc1cc(CN2CCCC[C@H]2C(=O)O)c(OCCOC(=O)CN2CCN(CC(=O)[O-])CCN(CC(=O)[O-])CCN(CC(=O)[O-])CC2)cc1/C=C/c1cccc(-c2ccccc2)c1C#N.[177Lu+3] [Compound 76] |  | very good therapeutic effects on inhibiting tumor growth |
| Cc1c(/C=C/c2cc(OCCOCCN3CCN(CC(=O)[O-])CCN(CC(=O)[O-])CCN(CC(=O)[O-])CC3)c(CN3CCCC[C@H]3C(=O)O)cc2C(F)(F)F)cccc1-c1ccccc1.[177Lu+3] [Compound 77] |  | very good therapeutic effects on inhibiting tumor growth |
